Strand notation (5' to 3'): a small letter for the sugar, then the base; units joined by * are phosphorothioate-linked, units joined directly phosphodiester-linked; [ ] holds rarer units or linkages, { } end groups; capitals alone tell only the bases. e = 2'-O-(2-methoxyethyl) (MOE); [5mC] = 5-methylcytosine
Tests used:
[1] = tested on: human hnRNP L (hsHNRNP L) mRNA; test: 5-point dose response (DRC) of ASOs, hnRNP L mRNA by branched DNA assay in BE(2)-M17 cells; assay type: cell-based; conditions: 24 h; for max. upregulation [%] (MV normalized hsHNRNP L/hsGAPDH): Lipofectamine3000, highest 120 nM, four 4-fold dilutions, bDNA, negative controls set to 100%; for EC50: hsHNRNP L mRNA upregulation, XLfit
Excerpt: Data were generated in biological quadruplicates. […] No significant decrease in hsGAPDH mRNA levels was observed.
Details and data are shown in Table 9A-9B, FIG. 24, and FIG. 25A-25E. In some cases, there was dose dependent hsHNRNP L on-target mRNA upregulation to varying degrees when cells were transfected with ASO compounds of interest.

[2] = tested on: hsHNRNP L mRNA; test: Time-course experiment, ASOs at 30 nM, hnRNP L mRNA by bDNA in BE(2)-M17 cells; assay type: cell-based, Homo sapiens; conditions: 30 nM ASO, mock controls set to 100%, incubations 24 h, 48 h, 72 h, time point not given
Method: Lipofectamine3000 (LF3000) was again used as the transfection agent. The transfection mixture was prepared identically on three plates. […] In this case, no outliers were removed. Data were generated in biological quadruplicates.
FIG. 26 includes a comparison of results from this study next to results from Example 7. Observing the results after 24 h incubation, similar data from the analysis in Example 7 were reproduced here.

## Skip-6A-15: ASO AGTGAGTTAGCACAGTTCTGAA (SEQ ID NO: 64), fully 2′-MOE, 5′-methyl C, phosphorothioate; exon 6A (antisense eA*eG*eT*eG*eA*eG*eT*eT*eA*eG*e[5mC]*eA*e[5mC]*eA*eG*eT*eT*e[5mC]*eT*eG*eA*eA; listed as Homo sapiens)
[1]
  max. upregulation [%] (MV normalized hsHNRNP L/hsGAPDH): 55.8%
  EC50: 7.45 nM
[2]
  MV normalized hsHNRNP L/hsGAPDH: 63.4%

## Skip-6A-18: ASO TACCATTGGACGCTTCAACAGT (SEQ ID NO: 67), fully 2′-MOE, 5′-methyl C, phosphorothioate; exon 6A (antisense eT*eA*e[5mC]*e[5mC]*eA*eT*eT*eG*eG*eA*e[5mC]*eG*e[5mC]*eT*eT*e[5mC]*eA*eA*e[5mC]*eA*eG*eT; listed as Homo sapiens)
[1]
  max. upregulation [%] (MV normalized hsHNRNP L/hsGAPDH): 47.3%
  EC50: 9.1 nM
[2]
  MV normalized hsHNRNP L/hsGAPDH: 42.7%

## Skip-6A-10: ASO GTCCCATCAAACATACACTGCG (SEQ ID NO: 59), fully 2′-MOE, 5′-methyl C, phosphorothioate; exon 6A (antisense eG*eT*e[5mC]*e[5mC]*e[5mC]*eA*eT*e[5mC]*eA*eA*eA*e[5mC]*eA*eT*eA*e[5mC]*eA*e[5mC]*eT*eG*e[5mC]*eG; listed as Homo sapiens)
[1]
  max. upregulation [%] (MV normalized hsHNRNP L/hsGAPDH): 49.2%
  EC50: 5.79 nM
[2]
  MV normalized hsHNRNP L/hsGAPDH: 42.1%

## Skip-6A-7: ASO GCGACCCTGCATCACATGGTTT (SEQ ID NO: 56), fully 2′-MOE, 5′-methyl C, phosphorothioate; upstream intron/exon (antisense eG*e[5mC]*eG*eA*e[5mC]*e[5mC]*e[5mC]*eT*eG*e[5mC]*eA*eT*e[5mC]*eA*e[5mC]*eA*eT*eG*eG*eT*eT*eT; listed as Homo sapiens)
[1]
  max. upregulation [%] (MV normalized hsHNRNP L/hsGAPDH): 51.2%
  EC50: 8.91 nM
[2]
  MV normalized hsHNRNP L/hsGAPDH: 59.3%

## 5UTR-V1-3: ASO GCAGCAGCCTCCGCGACATGGC (SEQ ID NO: 49), fully 2′-MOE, 5′-methyl C, phosphorothioate; hnRNP L 5′ UTR (antisense eG*e[5mC]*eA*eG*e[5mC]*eA*eG*e[5mC]*e[5mC]*eT*e[5mC]*e[5mC]*eG*e[5mC]*eG*eA*e[5mC]*eA*eT*eG*eG*e[5mC]; listed as Homo sapiens)
[1]
  max. upregulation [%] (MV normalized hsHNRNP L/hsGAPDH): 22.4%

## Skip-6A-6: ASO TGCATCACATGGTTTTACAGTC (SEQ ID NO: 55), fully 2′-MOE, 5′-methyl C, phosphorothioate; upstream intron (antisense eT*eG*e[5mC]*eA*eT*e[5mC]*eA*e[5mC]*eA*eT*eG*eG*eT*eT*eT*eT*eA*e[5mC]*eA*eG*eT*e[5mC]; listed as Homo sapiens)
[1]
  max. upregulation [%] (MV normalized hsHNRNP L/hsGAPDH): 65.1%
  EC50: 6.23 nM
[2]
  MV normalized hsHNRNP L/hsGAPDH: 81.7%

## Skip-6A-16: ASO CTTCAACAGTGAGTTAGCACAG (SEQ ID NO: 65), fully 2′-MOE, 5′-methyl C, phosphorothioate; exon 6A (antisense e[5mC]*eT*eT*e[5mC]*eA*eA*e[5mC]*eA*eG*eT*eG*eA*eG*eT*eT*eA*eG*e[5mC]*eA*e[5mC]*eA*eG; listed as Homo sapiens)
[1]
  max. upregulation [%] (MV normalized hsHNRNP L/hsGAPDH): 61.6%
  EC50: 4.93 nM
[2]
  MV normalized hsHNRNP L/hsGAPDH: 53.2%

## Skip-6A-3: ASO TAAATACAAGTCACGGTACACA (SEQ ID NO: 52), fully 2′-MOE, 5′-methyl C, phosphorothioate; upstream intron (antisense eT*eA*eA*eA*eT*eA*e[5mC]*eA*eA*eG*eT*e[5mC]*eA*e[5mC]*eG*eG*eT*eA*e[5mC]*eA*e[5mC]*eA; listed as Homo sapiens)
[1]
  max. upregulation [%] (MV normalized hsHNRNP L/hsGAPDH): 22.1%
  EC50: 9.29 nM
[2]
  MV normalized hsHNRNP L/hsGAPDH: 29.0%

## Skip-6A-2: ASO AGTCACGGTACACATCCGCTAC (SEQ ID NO: 51), fully 2′-MOE, 5′-methyl C, phosphorothioate; upstream intron (antisense eA*eG*eT*e[5mC]*eA*e[5mC]*eG*eG*eT*eA*e[5mC]*eA*e[5mC]*eA*eT*e[5mC]*e[5mC]*eG*e[5mC]*eT*eA*e[5mC]; listed as Homo sapiens)
[1]
  max. upregulation [%] (MV normalized hsHNRNP L/hsGAPDH): 7.2%
  EC50: 18.5 nM
[2]
  MV normalized hsHNRNP L/hsGAPDH: 1.8%

## Skip-6A-14: ASO TTAGCACAGTTCTGAAAGATGG (SEQ ID NO: 63), fully 2′-MOE, 5′-methyl C, phosphorothioate; exon 6A (antisense eT*eT*eA*eG*e[5mC]*eA*e[5mC]*eA*eG*eT*eT*e[5mC]*eT*eG*eA*eA*eA*eG*eA*eT*eG*eG; listed as Homo sapiens)
[1]
  max. upregulation [%] (MV normalized hsHNRNP L/hsGAPDH): 52.3%
  EC50: 6.41 nM
[2]
  MV normalized hsHNRNP L/hsGAPDH: 55.8%

## Skip-6A-9: ASO TCAAACATACACTGCGACCCTG (SEQ ID NO: 58), fully 2′-MOE, 5′-methyl C, phosphorothioate; upstream intron/exon (antisense eT*e[5mC]*eA*eA*eA*e[5mC]*eA*eT*eA*e[5mC]*eA*e[5mC]*eT*eG*e[5mC]*eG*eA*e[5mC]*e[5mC]*e[5mC]*eT*eG; listed as Homo sapiens)
[1]
  max. upregulation [%] (MV normalized hsHNRNP L/hsGAPDH): 40.2%
  EC50: 7.15 nM
[2]
  MV normalized hsHNRNP L/hsGAPDH: 31.3%

## 5UTR-V1-2: ASO TCCGCGACATGGCGGCGCAGAA (SEQ ID NO: 48), fully 2′-MOE, 5′-methyl C, phosphorothioate; hnRNP L 5′ UTR (antisense eT*e[5mC]*e[5mC]*eG*e[5mC]*eG*eA*e[5mC]*eA*eT*eG*eG*e[5mC]*eG*eG*e[5mC]*eG*e[5mC]*eA*eG*eA*eA; listed as Homo sapiens)
[1]
  max. upregulation [%] (MV normalized hsHNRNP L/hsGAPDH): 16.2%

## Skip-6A-19: ASO TTCTCTTACCATTGGACGCTTC (SEQ ID NO: 68), fully 2′-MOE, 5′-methyl C, phosphorothioate; exon 6A (antisense eT*eT*e[5mC]*eT*e[5mC]*eT*eT*eA*e[5mC]*e[5mC]*eA*eT*eT*eG*eG*eA*e[5mC]*eG*e[5mC]*eT*eT*e[5mC]; listed as Homo sapiens)
[1]
  max. upregulation [%] (MV normalized hsHNRNP L/hsGAPDH): 51.8%
  EC50: 7.36 nM
[2]
  MV normalized hsHNRNP L/hsGAPDH: 62.4%

## Skip-6A-11: ASO ATGGCGTCCCATCAAACATACA (SEQ ID NO: 60), fully 2′-MOE, 5′-methyl C, phosphorothioate; exon 6A (antisense eA*eT*eG*eG*e[5mC]*eG*eT*e[5mC]*e[5mC]*e[5mC]*eA*eT*e[5mC]*eA*eA*eA*e[5mC]*eA*eT*eA*e[5mC]*eA; listed as Homo sapiens)
[1]
  max. upregulation [%] (MV normalized hsHNRNP L/hsGAPDH): 47.8%
  EC50: 7.93 nM
[2]
  MV normalized hsHNRNP L/hsGAPDH: 38.3%

## Skip-6A-17: ASO TGGACGCTTCAACAGTGAGTTA (SEQ ID NO: 66), fully 2′-MOE, 5′-methyl C, phosphorothioate; exon 6A (antisense eT*eG*eG*eA*e[5mC]*eG*e[5mC]*eT*eT*e[5mC]*eA*eA*e[5mC]*eA*eG*eT*eG*eA*eG*eT*eT*eA; listed as Homo sapiens)
[1]
  max. upregulation [%] (MV normalized hsHNRNP L/hsGAPDH): 46.9%
  EC50: 10.6 nM
[2]
  MV normalized hsHNRNP L/hsGAPDH: 64.5%

## Skip-6A-8: ASO ATACACTGCGACCCTGCATCAC (SEQ ID NO: 57), fully 2′-MOE, 5′-methyl C, phosphorothioate; upstream intron/exon (antisense eA*eT*eA*e[5mC]*eA*e[5mC]*eT*eG*e[5mC]*eG*eA*e[5mC]*e[5mC]*e[5mC]*eT*eG*e[5mC]*eA*eT*e[5mC]*eA*e[5mC]; listed as Homo sapiens)
[1]
  max. upregulation [%] (MV normalized hsHNRNP L/hsGAPDH): 18.0%
  EC50: 8.54 nM
[2]
  MV normalized hsHNRNP L/hsGAPDH: 26.0%

## 5UTR-V1-1: ASO ATGGCGGCGCAGAACCCGCCTC (SEQ ID NO: 47), fully 2′-MOE, 5′-methyl C, phosphorothioate; hnRNP L 5′ UTR (antisense eA*eT*eG*eG*e[5mC]*eG*eG*e[5mC]*eG*e[5mC]*eA*eG*eA*eA*e[5mC]*e[5mC]*e[5mC]*eG*e[5mC]*e[5mC]*eT*e[5mC]; listed as Homo sapiens)
[1]
  max. upregulation [%] (MV normalized hsHNRNP L/hsGAPDH): 11.4%

## Skip-6A-13: ASO CAGTTCTGAAAGATGGCGTCCC (SEQ ID NO: 62), fully 2′-MOE, 5′-methyl C, phosphorothioate; exon 6A (antisense e[5mC]*eA*eG*eT*eT*e[5mC]*eT*eG*eA*eA*eA*eG*eA*eT*eG*eG*e[5mC]*eG*eT*e[5mC]*e[5mC]*e[5mC]; listed as Homo sapiens)
[1]
  max. upregulation [%] (MV normalized hsHNRNP L/hsGAPDH): 53.3%
  EC50: 3.97 nM
[2]
  MV normalized hsHNRNP L/hsGAPDH: 56.0%

## Skip-6A-1: ASO GTACACATCCGCTACAATTTTT (SEQ ID NO: 50), fully 2′-MOE, 5′-methyl C, phosphorothioate; upstream intron of hnRNP L exon 6A (antisense eG*eT*eA*e[5mC]*eA*e[5mC]*eA*eT*e[5mC]*e[5mC]*eG*e[5mC]*eT*eA*e[5mC]*eA*eA*eT*eT*eT*eT*eT; listed as Homo sapiens)
[1]
  max. upregulation [%] (MV normalized hsHNRNP L/hsGAPDH): 9.1%
  EC50: 15.2 nM
[2]
  MV normalized hsHNRNP L/hsGAPDH: 13.0%

Reference: patent publication US20250290074A1, “TARGETED TREATMENT OF SPLICEOPATHY-INDUCED NEUROLOGICAL DISORDERS” (Auttx, LLC, priority 2022, published 2025)
